For eight molecules, TGI results are on record in PubChem BioAssay (NCI).

Each structure is given as a SMILES string.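 Each compound was tested at five concentrations against cells in 96-well plates for 48 hours. TGI is the concentration that stops growth completely.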 Where a SMILES comes first, the peptide text is derived from it. [ ]: non-standard residue; d: D form. The star is where a group is joined. Octanoyl = CCCCCCCC(=O)*; Aib = CC(C)(N)C(=O)O; tBu = CC(C)(C)*

Among the test systems are HCT-116 colon; SK-MEL-2 melanoma; MCF7 breast; HL-60(TB) leukemia; BT-549 breast; OVCAR-4 ovarian; EKVX NSCLC; A549 NSCLC; SK-MEL-28 melanoma; SK-MEL-5 melanoma; T-47D breast; NCI-H23 lung; MDA-MB-231 breast; LOX IMVI melanoma; UACC-257 melanoma; COLO 205 colon.
Assay in all cases: NCI-60 cell line screen, 48 h

For the molecule `COC(=O)C1(Cc2ccccc2)Cc2ccc3c(c2C1=O)CCC3` (stereo not drawn), the TGI in the assay on HCT-116 colon was greater than 100 µM; with SK-MEL-2 melanoma, 41.5 µM; in the assay with MCF7 breast, greater than 100 µM; in the assay with HL-60(TB) leukemia it was greater than 63.3 µM; in the assay on BT-549 breast, greater than 87.7 µM; in the assay with OVCAR-4 ovarian, greater than 92.8 µM. For the same molecule, the TGI in the assay with EKVX NSCLC is greater than 75.2 µM; with A549 NSCLC, greater than 100 µM; with SK-MEL-28 melanoma it was greater than 100 µM; in the assay on SK-MEL-5 melanoma, 49.9 µM; with T-47D breast, greater than 100 µM; in the assay on NCI-H23 lung, greater than 78.6 µM. Also, the TGI in the assay on MDA-MB-231 breast was greater than 100 µM; with LOX IMVI melanoma, greater than 64 µM; with UACC-257 melanoma, 99.1 µM; in the assay on COLO 205 colon, greater than 62.5 µM.
`COc1ccccc1Cn1nc(OC)c2cc([N+](=O)[O-])ccc21`: the TGI was greater than 100 µM in the assay with HCT-116 colon; greater than 57.5 µM with SK-MEL-2 melanoma; greater than 100 µM in the assay with MCF7 breast; greater than 100 µM in the assay on HL-60(TB) leukemia; 46.2 µM in the assay with BT-549 breast; greater than 100 µM in the assay with OVCAR-4 ovarian. Further, the TGI is greater than 73.6 µM with EKVX NSCLC; greater than 100 µM in the assay with A549 NSCLC; greater than 100 µM in the assay with SK-MEL-28 melanoma; greater than 100 µM with SK-MEL-5 melanoma; greater than 100 µM in the assay on T-47D breast; greater than 89.2 µM in the assay with NCI-H23 lung. Further, the TGI was greater than 67.7 µM in the assay with MDA-MB-231 breast, greater than 100 µM in the assay with LOX IMVI melanoma, greater than 100 µM in the assay with UACC-257 melanoma and greater than 100 µM in the assay with COLO 205 colon.
As to `Oc1ccc(Cn2c(-c3ccc(O)c(O)c3)nc3ccccc32)cc1O`, the TGI was 16.3 µM in the assay with HCT-116 colon; 39 µM with SK-MEL-2 melanoma; greater than 100 µM in the assay on MCF7 breast; 51.1 µM with HL-60(TB) leukemia; 51 µM in the assay on BT-549 breast; 54.1 µM with OVCAR-4 ovarian. Further, the TGI in the assay on EKVX NSCLC turned out to be 75.7 µM; in the assay with A549 NSCLC, 66.2 µM; in the assay on SK-MEL-28 melanoma, 78 µM; in the assay with SK-MEL-5 melanoma, 50.9 µM; with T-47D breast, 45.1 µM; in the assay with NCI-H23 lung, 75.4 µM. Further, the TGI is 43.3 µM in the assay on MDA-MB-231 breast, 26 µM in the assay with LOX IMVI melanoma, greater than 100 µM in the assay on UACC-257 melanoma and 31.1 µM in the assay on COLO 205 colon.
Regarding `CCOC(=O)CCC(NC(=O)c1ccc(OCc2nc3ccccc3n3cccc23)cc1)C(=O)OCC` (stereo not drawn), the TGI with HCT-116 colon, in the assay on SK-MEL-2 melanoma, in the assay on MCF7 breast, in the assay with HL-60(TB) leukemia, in the assay on BT-549 breast and with OVCAR-4 ovarian was greater than 100 µM in each case. Moreover, the TGI in the assay with EKVX NSCLC, with A549 NSCLC, in the assay on SK-MEL-28 melanoma, in the assay on SK-MEL-5 melanoma, in the assay with T-47D breast and with NCI-H23 lung was greater than 100 µM throughout. The TGI with MDA-MB-231 breast, in the assay on LOX IMVI melanoma, with UACC-257 melanoma and in the assay with COLO 205 colon was greater than 100 µM in each case.
With `O=[N+]([O-])c1cc(-[n+]2cc([O-])on2)ccc1F`, the TGI in the assay with HCT-116 colon amounted to 28.6 µM; in the assay with SK-MEL-2 melanoma, 31 µM; in the assay with MCF7 breast it was 29.4 µM; in the assay on HL-60(TB) leukemia, 49 µM; with BT-549 breast it was 31.3 µM; in the assay on OVCAR-4 ovarian, 30.4 µM. Also, the TGI in the assay with EKVX NSCLC was determined as 34.8 µM; in the assay on A549 NSCLC it was 33.4 µM; in the assay on SK-MEL-28 melanoma, 29.8 µM; in the assay on SK-MEL-5 melanoma, 28.4 µM; with T-47D breast it was 15.5 µM; with NCI-H23 lung, 33.5 µM. The TGI in the assay on MDA-MB-231 breast stood at 38 µM; in the assay on LOX IMVI melanoma, 31.1 µM; in the assay with UACC-257 melanoma, 31.6 µM; with COLO 205 colon, 35.2 µM.
On to `CN(C)c1nc(-c2ccccc2)c(C(=O)c2c[nH]c3ccccc23)s1`, for which the TGI is greater than 100 µM in the assay on HCT-116 colon; greater than 100 µM in the assay with SK-MEL-2 melanoma; greater than 100 µM in the assay with MCF7 breast; 16.5 µM in the assay on HL-60(TB) leukemia; greater than 100 µM with BT-549 breast; greater than 100 µM with OVCAR-4 ovarian. In addition, the TGI in the assay on EKVX NSCLC, with A549 NSCLC, with SK-MEL-28 melanoma, in the assay on SK-MEL-5 melanoma, in the assay on T-47D breast and in the assay with NCI-H23 lung was greater than 100 µM throughout. For the same molecule, the TGI in the assay with MDA-MB-231 breast, in the assay on LOX IMVI melanoma, in the assay with UACC-257 melanoma and with COLO 205 colon was greater than 100 µM in each case.
Regarding `CCCCCCCC(=O)NC(C)(C)C(=O)NC(COC(C)(C)C)C(=O)NC(CC(C)C)C(=O)NC(C)(C)C(=O)NC(COC(C)(C)C)C(=O)NC(COC(C)(C)C)C(=O)NC(CC(C)C)C(=O)NC(C)(C)C(=O)NC(COC(C)(C)C)C(=O)NC(C(=O)NC(CC(C)C)C(=O)OC)C(C)CC` (stereo not drawn) (Octanoyl-[Aib]S(tBu)L[Aib]S(tBu)S(tBu)L[Aib]S(tBu)IL-OMe; configuration not given here), the TGI is greater than 25 µM with HCT-116 colon; 13.5 µM with SK-MEL-2 melanoma; 17 µM with MCF7 breast; 15.6 µM in the assay on HL-60(TB) leukemia; 13.1 µM with BT-549 breast; greater than 25 µM with OVCAR-4 ovarian. The TGI is 16.3 µM in the assay with EKVX NSCLC; greater than 25 µM in the assay on A549 NSCLC; greater than 25 µM with SK-MEL-28 melanoma; 16.2 µM in the assay on SK-MEL-5 melanoma; 23.5 µM in the assay with T-47D breast; 12.7 µM with NCI-H23 lung. Moreover, the TGI is 15.9 µM in the assay on MDA-MB-231 breast, 10.6 µM in the assay on LOX IMVI melanoma, greater than 25 µM with UACC-257 melanoma and 15.8 µM in the assay on COLO 205 colon.
`O=c1oc2ccc3ccccc3c2cc1-c1nc2ccccc2o1`: the TGI was greater than 53.6 µM in the assay with HCT-116 colon; 60.1 µM in the assay with SK-MEL-2 melanoma; 20.5 µM with MCF7 breast; greater than 100 µM in the assay on HL-60(TB) leukemia; greater than 61.4 µM with BT-549 breast; 90.4 µM in the assay on OVCAR-4 ovarian. Moreover, the TGI in the assay on EKVX NSCLC is greater than 56.2 µM; with A549 NSCLC, greater than 55.2 µM; with SK-MEL-28 melanoma, greater than 59.2 µM; in the assay with SK-MEL-5 melanoma, 58.8 µM; in the assay on T-47D breast it was 39.7 µM; in the assay with NCI-H23 lung it was greater than 63.3 µM. Besides, the TGI in the assay with MDA-MB-231 breast was 35.6 µM; in the assay on LOX IMVI melanoma, 32.8 µM; with UACC-257 melanoma, 99.2 µM; with COLO 205 colon, greater than 100 µM.
